Measured values taken from patent publication US10081624B2, “Heterocyclic compound” (Takeda Pharmaceutical Company Limited, priority 2014, dated 2018).

What was measured:
HDAC6 enzyme = target: T1, HDAC6 enzyme (Homo sapiens, UniProt Q9UBN7); assay: HDAC6 enzyme inhibitory assay (HDAC-Glo I/II Assay kit); assay type: biochemical; details: 1 μM test compound; read-out: HDAC6 inhibitory rate (%) (1 μM)
T1 construct: prepared by transducing full length HDAC1 and HDAC6 genes into Sf-9 insect cells; GST; purchased SignalChem; host or cells: Sf-9 insect cells
T1 sequence (Q9UBN7 1-1215): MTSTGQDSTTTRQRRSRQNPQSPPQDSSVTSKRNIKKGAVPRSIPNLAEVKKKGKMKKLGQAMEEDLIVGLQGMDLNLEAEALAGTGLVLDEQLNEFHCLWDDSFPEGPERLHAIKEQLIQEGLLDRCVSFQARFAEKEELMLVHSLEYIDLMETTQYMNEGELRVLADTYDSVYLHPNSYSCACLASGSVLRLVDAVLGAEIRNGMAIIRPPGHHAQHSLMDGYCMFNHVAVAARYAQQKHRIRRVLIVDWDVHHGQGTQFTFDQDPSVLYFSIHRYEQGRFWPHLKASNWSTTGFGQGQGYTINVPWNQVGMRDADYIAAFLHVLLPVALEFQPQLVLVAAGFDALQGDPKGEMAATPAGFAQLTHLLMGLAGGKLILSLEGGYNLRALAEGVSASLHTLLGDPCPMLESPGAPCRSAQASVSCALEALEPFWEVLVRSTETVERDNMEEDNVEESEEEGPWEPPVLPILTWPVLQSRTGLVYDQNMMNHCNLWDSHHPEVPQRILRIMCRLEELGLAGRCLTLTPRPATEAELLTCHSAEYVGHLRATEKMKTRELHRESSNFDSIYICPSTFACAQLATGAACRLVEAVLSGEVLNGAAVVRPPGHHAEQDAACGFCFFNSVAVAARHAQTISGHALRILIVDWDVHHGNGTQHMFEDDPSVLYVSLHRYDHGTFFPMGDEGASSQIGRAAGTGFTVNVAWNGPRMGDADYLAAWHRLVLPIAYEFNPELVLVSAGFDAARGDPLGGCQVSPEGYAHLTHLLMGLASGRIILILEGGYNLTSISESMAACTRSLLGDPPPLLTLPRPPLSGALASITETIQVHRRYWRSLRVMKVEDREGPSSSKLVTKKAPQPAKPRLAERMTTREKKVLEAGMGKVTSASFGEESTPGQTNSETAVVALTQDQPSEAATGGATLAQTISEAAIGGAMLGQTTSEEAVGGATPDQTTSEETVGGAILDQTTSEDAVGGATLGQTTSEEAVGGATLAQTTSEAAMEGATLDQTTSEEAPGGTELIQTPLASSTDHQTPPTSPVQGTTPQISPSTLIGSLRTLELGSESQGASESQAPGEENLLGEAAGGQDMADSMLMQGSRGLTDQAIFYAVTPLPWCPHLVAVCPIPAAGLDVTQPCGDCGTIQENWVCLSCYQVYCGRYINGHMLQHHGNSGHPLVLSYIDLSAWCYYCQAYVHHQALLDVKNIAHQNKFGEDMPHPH
How it was run: (§1)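 Luminescence read-out: 20 min after adding HDAC-Glo substrate-developer at room temperature. Before that, compound and Sf-9-expressed, GST-purified full-length HDAC1 or HDAC6 sat together 60 min in pH 7.5 Tris buffer. Inhibition is relative to no-enzyme wells taken as 100%.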

HDAC1 enzyme = target: T2, HDAC1 enzyme (Homo sapiens, UniProt Q13547); assay: HDAC1 enzyme inhibitory assay (HDAC-Glo I/II Assay kit); assay type: biochemical; details: 1 μM test compound; read-out: HDAC1 inhibitory rate (%) (1 μM)
T2 construct: prepared by transducing full length HDAC1 and HDAC6 genes into Sf-9 insect cells; GST; purchased SignalChem; host or cells: Sf-9 insect cells
T2 sequence (Q13547 whole entry): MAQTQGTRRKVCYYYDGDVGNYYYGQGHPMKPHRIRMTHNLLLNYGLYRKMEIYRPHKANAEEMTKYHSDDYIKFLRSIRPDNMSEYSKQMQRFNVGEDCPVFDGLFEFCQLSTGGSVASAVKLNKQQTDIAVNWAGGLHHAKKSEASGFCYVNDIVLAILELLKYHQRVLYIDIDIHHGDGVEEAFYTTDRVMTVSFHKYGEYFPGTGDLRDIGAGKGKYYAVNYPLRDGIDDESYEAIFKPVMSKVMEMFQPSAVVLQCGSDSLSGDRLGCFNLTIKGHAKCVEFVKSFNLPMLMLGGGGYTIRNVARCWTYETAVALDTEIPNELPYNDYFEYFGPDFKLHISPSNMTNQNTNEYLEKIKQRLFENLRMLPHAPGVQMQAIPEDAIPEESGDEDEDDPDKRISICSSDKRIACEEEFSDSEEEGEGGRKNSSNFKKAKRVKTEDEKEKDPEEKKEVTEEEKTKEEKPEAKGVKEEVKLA
How it was run: as §1

Row | inhibition at 1 µM (HDAC6 enzyme) [%] | inhibition at 1 µM (HDAC1 enzyme) [%] | SMILES
1 | 98 | 42 | Cc1nc2sccn2c1C(=O)N1CCOC[C@@H]1CNC(=O)c1ccc(-c2noc(C(F)(F)F)n2)cc1 [Example 91, N-(((3S)-4-((6-methylimidazo[2,1-b][1,3]thiazol-5-yl)carbonyl)morpholin-3-yl)methyl)-4-(5-(trifluoromethyl)-1,2,4-oxadiazol-3-yl)benzamide]
2 | 84 | 14 | O=C(NC[C@H]1COCCN1C(=O)N1CCC[C@H]1CO)c1ccc(-c2noc(C(F)(F)F)n2)cc1 [Example 107, N-(((3S)-4-(((2S)-2-(hydroxymethyl)pyrrolidin-1-yl)carbonyl)morpholin-3-yl)methyl)-4-(5-(trifluoromethyl)-1,2,4-oxadiazol-3-yl)benzamide]
3 | 100 | 2 | O=C(NC[C@H]1COCCN1C(=O)N1CCC[C@@H]1CO)c1ccc(-c2noc(C(F)(F)F)n2)cc1 [Example 108, N-(((3S)-4-(((2R)-2-(hydroxymethyl)pyrrolidin-1-yl)carbonyl)morpholin-3-yl)methyl)-4-(5-(trifluoromethyl)-1,2,4-oxadiazol-3-yl)benzamide]
4 | 96 | 10 | O=C(NC[C@H]1COCCN1C(=O)N1CC2CCC(C1)O2)c1ccc(-c2noc(C(F)(F)F)n2)cc1 [Example 110, N-(((3S)-4-(8-oxa-3-azabicyclo[3.2.1]oct-3-ylcarbonyl)morpholin-3-yl)methyl)-4-(5-(trifluoromethyl)-1,2,4-oxadiazol-3-yl)benzamide]
5 | 100 | 19 | O=C(NC[C@@H]1COCCN1C(=O)c1cc2ccccc2o1)c1ccc(-c2noc(C(F)(F)F)n2)cc1 [Example 125, N-(((3R)-4-(1-benzofuran-2-ylcarbonyl)morpholin-3-yl)methyl)-4-(5-(trifluoromethyl)-1,2,4-oxadiazol-3-yl)benzamide]
6 | 92 | 6 | O=C(NC[C@@H]1COCCN1C(=O)C1(c2ccccc2)CC1)c1ccc(-c2noc(C(F)(F)F)n2)cc1 [Example 128, N-(((3R)-4-((1-phenylcyclopropyl)carbonyl)morpholin-3-yl)methyl)-4-(5-(trifluoromethyl)-1,2,4-oxadiazol-3-yl)benzamide]
7 | 98 | 16 | Cc1nonc1C(=O)N1CCOC[C@H]1CNC(=O)c1ccc(-c2noc(C(F)(F)F)n2)cc1 [Example 132, N-(((3R)-4-((4-methyl-1,2,5-oxadiazol-3-yl)carbonyl)morpholin-3-yl)methyl)-4-(5-(trifluoromethyl)-1,2,4-oxadiazol-3-yl)benzamide]
8 | 96 | 6 | O=C(NC[C@@H]1COCCN1C(=O)c1ccno1)c1ccc(-c2noc(C(F)(F)F)n2)cc1 [Example 133, N-(((3R)-4-(1,2-oxazol-5-ylcarbonyl)morpholin-3-yl)methyl)-4-(5-(trifluoromethyl)-1,2,4-oxadiazol-3-yl)benzamide]
9 | 97 | 11 | Cc1cc(C(=O)N2CCOC[C@H]2CNC(=O)c2ccc(-c3noc(C(F)(F)F)n3)cc2)on1 [Example 134, N-(((3R)-4-((3-methyl-1,2-oxazol-5-yl)carbonyl)morpholin-3-yl)methyl)-4-(5-(trifluoromethyl)-1,2,4-oxadiazol-3-yl)benzamide]
10 | 96 | 12 | O=C(NC[C@@H]1COCCN1C(=O)c1csnn1)c1ccc(-c2noc(C(F)(F)F)n2)cc1 [Example 142, N-(((3R)-4-(1,2,3-thiadiazol-4-ylcarbonyl)morpholin-3-yl)methyl)-4-(5-(trifluoromethyl)-1,2,4-oxadiazol-3-yl)benzamide]

Row | SMILES | inhibition at 1 µM (HDAC6 enzyme) [%] | inhibition at 1 µM (HDAC1 enzyme) [%]
11 | O=C(NC[C@H]1COCCN1C(=O)N1C2CCC1COC2)c1ccc(-c2noc(C(F)(F)F)n2)cc1 [Example 109, N-(((3S)-4-(3-oxa-8-azabicyclo[3.2.1]oct-8-ylcarbonyl)morpholin-3-yl)methyl)-4-(5-(trifluoromethyl)-1,2,4-oxadiazol-3-yl)benzamide] | 99 | 10
